From article PMC3368874, “Characterization of 4-HNE Modified L-FABP Reveals Alterations in Structural and Functional Dynamics” (PLoS ONE, 2012)
Read-outs that look alike come from different tables or passages of the source.

Assays:
4-HNE modified rL-FABP = biological target: T1, 4-HNE modified rL-FABP (Mus musculus, UniProt P12710); experiment: ANS equilibrium binding to 4-HNE treated rL-FABP (fluorescence)
T1 construct: made in house; host or cells: Escherichia coli BL21 (DE3)
T1 sequence (P12710 1-127): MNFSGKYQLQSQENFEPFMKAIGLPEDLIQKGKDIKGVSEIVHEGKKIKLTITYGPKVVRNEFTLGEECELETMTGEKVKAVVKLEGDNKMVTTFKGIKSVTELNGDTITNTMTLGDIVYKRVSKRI
Protocol: (§1) Steady-state fluorescence spectra were measured using a HORIBA JOBIN YVON FluoroMax-3 Fluorometer (Edison, NJ USA). The binding of ANS to rL-FABP was monitored following excitation at 370 nm and emission at 475 nm, with slits set at 2 and 4 nm, respectively. Measurements were taken at ambient temperature in a 0.7 mL fluorescence cuvette (Starna Cells, Atascadero, CA). Equilibrium binding studies were conducted with saturating concentrations of ANS according to previous studies, [30] with slight modifications. Briefly, ANS (0–45 µM) was titrated into 1 µM rL-FABP in 50 mM tricine buffer (pH 8.0), mixed for 30 seconds, and emission spectra were recorded. rL-FABP was either treated with 4-HNE (0.1X [5.93 µM], 1X [53.93 µM], or 5X [245.09 µM]) or the arginine blocker phenylglyoxal (PG) (10 mM), or a combination of the two (PG +5X). Following treatments, protein was dialyzed overnight in tricine buffer, pH 8.0. Preparation of ANS was conducted according to Denicola et al., where it was solubilized in absolute ethanol and quantified at Abs372 with an extinction coefficient of 8,000 cm^−1·M^−1 prior to use.
(§2) Statistical analysis and generation of graphs was performed using GraphPad Prism (v 4.02; GraphPad Software, San Diego, CA) and SigmaPlot (v10.0; Systat Software, San Jose, CA). Statistical differences between control and treated samples were assessed using a paired Student’s t test or a one-way ANOVA with Tukey’s post-test. Differences were considered significant if p<0.05. Nonlinear regression (curve fit) analysis was performed using a two-site binding hyperbola (eq 1), where ΔF is the enhancement in fluorescence intensity upon the binding of ANS to L-FABP to a point of saturation (Bmax). [drawing 1] (1)

holo rL-FABP = biological target: T2, holo rL-FABP (Mus musculus, UniProt P12710); experiment: Thermal denaturation of holo rL-FABP (UV-monitored); details: semi-quantitative
T2 construct: made in house; host or cells: Escherichia coli BL21 (DE3)
T2 sequence (P12710 1-127): T1 sequence (P12710 1-127)
Protocol: (§3) The stability of rL-FABP was assessed using UV-monitored heating experiments. Native (apo and holo) and 4-HNE modified (apo and holo) rL-FABP (0.8 mg/ml) was thermally denatured in 50 mM tricine buffer (pH 8.0) at 40–95°C over 1.5 hours in a 0.7 mL quartz cell (Starna Cells). Absorbance of rL-FABP was monitored at 260–360 nm using a Chirascan Plus Spectrometer (Applied Photophysics, Leatherhead, Surrey, UK) once per minute. Temperature was continuously ramped 1°C/min. Light scattering was recorded continuously at 360 nm to monitor protein aggregation. Temperature of aggregation (Tm) was determined using Global Analysis T-Ramp software provided by Applied Photophysics (Pro-Data Global3 v1.1.0) following baseline correction.

apo rL-FABP = biological target: T3, apo rL-FABP (Mus musculus, UniProt P12710); experiment: Thermal denaturation of apo rL-FABP (UV-monitored)
T3 construct: made in house; host or cells: Escherichia coli BL21 (DE3)
T3 sequence (P12710 1-127): T1 sequence (P12710 1-127)
Protocol: as §3

[1] = design: method as in PMID 12437335; details: cited from earlier work
rL-FABP [2] = biological target: T4, rL-FABP (Mus musculus, UniProt P12710); experiment: ANS equilibrium binding to native rL-FABP (fluorescence)
T4 construct: made in house; host or cells: Escherichia coli BL21 (DE3)
T4 sequence (P12710 1-127): T1 sequence (P12710 1-127)
Protocol: as §1, §2

PG treated rL-FABP = biological target: T5, PG treated rL-FABP (Mus musculus, UniProt P12710); experiment: ANS equilibrium binding to phenylglyoxal (PG) treated rL-FABP
T5 construct: made in house; host or cells: Escherichia coli BL21 (DE3)
T5 sequence (P12710 1-127): T1 sequence (P12710 1-127)
Protocol: as §1, §2

[3] = biological target: T6, PG + 5X 4-HNE treated rL-FABP (Mus musculus, UniProt P12710); experiment: ANS equilibrium binding to PG + 5X 4-HNE treated rL-FABP
T6 construct: made in house; host or cells: Escherichia coli BL21 (DE3)
T6 sequence (P12710 1-127): T1 sequence (P12710 1-127)
Protocol: as §1, §2

4-HNE adducted rL-FABP = biological target: T7, 4-HNE adducted rL-FABP (Mus musculus, UniProt P12710); experiment: Displacement of ANS by fatty acids, 1X 4-HNE treated rL-FABP; format: binding; details: for bi (counts inhibitable) / Ki: 1X 4-HNE (53.95 µM) treated rL-FABP; for Ki: read-out: ki (inhibition constant); for br (counts residual) / n (hill coefficient): 1X 4-HNE treated rL-FABP; for reduction of maximal binding to the FA by 4-HNE: 1X 4-HNE treated versus WT rL-FABP
T7 construct: made in house; host or cells: Escherichia coli BL21 (DE3)
T7 sequence (P12710 1-127): T1 sequence (P12710 1-127)
Protocol: (§4) Lipid displacement assays were adapted from previous publications, [30]. Briefly, lipids were used to displace ANS bound to rL-FABP to assess how 4-HNE modification affects affinity towards more biologic ligands. Lipid stocks were diluted in absolute ethanol (10 mM, 5 mM, 1 mM, 0.1 mM) and prepared in a nitrogen gas chamber. Using conditions similar to ANS binding, increasing concentrations of FAs [stearate (SA), oleate (OA), and LA] were titrated into a pre-equilibrated solution containing 45 µM ANS, 1 µM r-LFABP, and 50 mM tricine (pH 8.0). The sample was mixed for an additional 30 seconds and the excitation and emission of ANS was measured as mentioned, where the loss of fluorescence indicates affinity towards the lipid.
(§5) For the displacement assays, one-site inhibition analysis of the data was utilized based on the fit of the data (instead of a two-site inhibition analysis) (eq2). Fluorescence counts that are inhibitable are denoted as bi, and residual counts are br. The concentration of OA, SA or LA is denoted as [FA]. The Hill constant, η, indicates the cooperativity between the binding sites, where if η >1 the sites are positively cooperative, η <1 the site are negatively cooperative, and if η = 1 the sites are non-cooperative. [drawing 2] (2)

rL-FABP [4] = biological target: T4, rL-FABP; experiment: Displacement of ANS by fatty acids, WT rL-FABP; format: binding; details: for bi (counts inhibitable) / Ki: 45 µM ANS, 1 µM protein; for Ki: read-out: ki (inhibition constant)
Protocol: as §4, §5

[5] = rL-FABP treated with 1X 4-HNE (53.93 µM)
[6] = rL-FABP treated with 5X 4-HNE (245.09 µM)
[7] = rL-FABP treated with 5X 4-HNE + PG

**Q.** What does the source list for `CCCCCC(O)C=CC=O` (stereo not drawn) [4-HNE, 4-hydroxy-2-nonenal]?
**A.** reduction of capacity for ligand when adducted by 4-HNE (4-HNE modified rL-FABP; saturation analyses): approximately 50%; Tm of holo rL-FABP (holo rL-FABP; 0.1X 4-HNE (4.93 µM)): 83.84±0.39 °C; Tm of holo rL-FABP (holo rL-FABP; 1X 4-HNE (49.26 µM)): 84.89±0.48 °C; Tm of holo rL-FABP (holo rL-FABP; 5X 4-HNE (246.31 µM)): 83.698±0.53 °C; Tm of apo rL-FABP (apo rL-FABP; 0.1X 4-HNE (4.93 µM)): 70.09±0.004 °C; Tm of apo rL-FABP (apo rL-FABP; 1X 4-HNE (49.26 µM)): 68.56±0.05 °C; Tm of apo rL-FABP (apo rL-FABP; 5X 4-HNE (246.31 µM)): 66.38±0.15 °C; ΔTm of apo L-FABP by 4-HNE adduction (apo rL-FABP; P<0.01): 5.44 °C; half-life [1]: ~2 min

**Q.** Which results are given for `O=S(=O)(O)c1cccc2cccc(Nc3ccccc3)c12` [ANS, 1-Anilinonaphthalene-8-Sulfonic Acid]?
**A.** decrease in the affinity for ANS, secondary binding site (4-HNE modified rL-FABP; 5X 4-HNE versus native (kd2)): ~6 fold; Kd (4-HNE modified rL-FABP; Kd1, rL-FABP treated with 0.1X 4-HNE (5.93 µM)): 132 ± 74 nM; Kd (4-HNE modified rL-FABP; Kd1, rL-FABP treated with 1X 4-HNE (53.93 µM)): 135 ± 74 nM; Kd (4-HNE modified rL-FABP; Kd1, rL-FABP treated with 5X 4-HNE (245.09 µM)): 395 ± 101 nM; Bmax1 (4-HNE modified rL-FABP; rL-FABP treated with 0.1X 4-HNE (5.93 µM)): 175,500±36,800 AFU; Bmax1 (4-HNE modified rL-FABP; [5]): 123,000±28,900 AFU; Bmax2 (4-HNE modified rL-FABP; [5]): 548,900±23,700 AFU; Bmax1 (4-HNE modified rL-FABP; [6]): 238,100±21,700 AFU; Bmax2 (4-HNE modified rL-FABP; [6]): 537,400±81,900 AFU; Kd (4-HNE modified rL-FABP; read-out: Kd2, rL-FABP treated with 0.1X 4-HNE (5.93 µM)): 7400 ± 1070 nM; Kd (4-HNE modified rL-FABP; read-out: Kd2, rL-FABP treated with 1X 4-HNE (53.93 µM)): 4990 ± 710 nM; Kd (4-HNE modified rL-FABP; read-out: Kd2, rL-FABP treated with 5X 4-HNE (245.09 µM)): 34200 ± 13900 nM; Kd (rL-FABP [2]): 347 ± 153 nM; Bmax1 (rL-FABP [2]; native rL-FABP (0X 4-HNE), 1 µM protein, primary site): 540,200±142,500 AFU; Bmax2 (rL-FABP [2]; native rL-FABP, secondary site): 500,500±116,800 AFU; Kd (rL-FABP [2]; read-out: Kd2, native rL-FABP, secondary site): 6170 ± 1440 nM; Kd (PG treated rL-FABP): 165 ± 111 nM; Bmax1 (PG treated rL-FABP; rL-FABP treated with PG 10 mM): 83,200±23,200 AFU; Bmax2 (PG treated rL-FABP; rL-FABP treated with PG 10 mM): 446,400±17,500 AFU; Kd (PG treated rL-FABP; read-out: Kd2, rL-FABP treated with PG 10 mM): 7180 ± 121 nM; Kd [3]: 326 ± 127 nM; Bmax1 [3, 7]: 168,200±22,900 AFU; Bmax2 [3, 7]: 512,200±64,500 AFU; Kd ([3]; read-out: Kd2, rL-FABP treated with 5X 4-HNE + PG): 27900 ± 10700 nM

**Q.** Which “bi (counts inhibitable)” value (4-HNE adducted rL-FABP) does the source give for `CCCCC/C=C\C/C=C\CCCCCCCC(=O)O` [Linoleic Acid] here?
**A.** 449,500±11,400 AFU

**Q.** What about the Ki (4-HNE adducted rL-FABP) of the same molecule?
**A.** 2800 ± 300 nM

**Q.** And the “br (counts residual)” value (4-HNE adducted rL-FABP)?
**A.** 96,300±9,200 AFU

**Q.** What about the “n (hill coefficient)” value (4-HNE adducted rL-FABP) of the same molecule?
**A.** 1.76±0.14

**Q.** What about the “reduction of maximal binding to the FA by 4-HNE” value (4-HNE adducted rL-FABP) of the same molecule?
**A.** 49%

**Q.** And the “br (counts residual)” value (rL-FABP [4])?
**A.** 164,800±43,900 AFU

**Q.** What about the “n (hill coefficient)” value (rL-FABP [4]) of the same molecule?
**A.** 1.38±0.26

**Q.** What about the “bi (counts inhibitable)” value (rL-FABP [4]) of the same molecule?
**A.** 888,000±54 AFU

**Q.** What about the Ki (rL-FABP [4]) of the same molecule?
**A.** 1560 ± 290 nM

**Q.** Which “bi (counts inhibitable)” value (4-HNE adducted rL-FABP) does the source give for `CCCCCCCC/C=C\CCCCCCCC(=O)O` [Oleic Acid] here?
**A.** 457,600±26,400 AFU

**Q.** What about the Ki (4-HNE adducted rL-FABP) of the same molecule?
**A.** 690 ± 97 nM

**Q.** What about the “br (counts residual)” value (4-HNE adducted rL-FABP) of the same molecule?
**A.** 63,500±19,200 AFU

**Q.** What about the “n (hill coefficient)” value (4-HNE adducted rL-FABP) of the same molecule?
**A.** 0.81±0.0999

**Q.** What about the “reduction of maximal binding to the FA by 4-HNE” value (4-HNE adducted rL-FABP) of the same molecule?
**A.** 32.7%

**Q.** What about the “br (counts residual)” value (rL-FABP [4]) of the same molecule?
**A.** 171,600±19,800 AFU

**Q.** And the “n (hill coefficient)” value (rL-FABP [4])?
**A.** 2.31±0.29

**Q.** And the “bi (counts inhibitable)” value (rL-FABP [4])?
**A.** 680,200±26,500000 AFU

**Q.** And the Ki (rL-FABP [4])?
**A.** 5880 ± 1450 nM
